Reference: US20250204541A1, “GAS PHASE TREATMENT OF PRODUCE” (priority 2022, published 2025)

What was measured:
Type in all cases: in vivo
[1] = system: Colletotrichum gloeosporioides (Cg); assay: Antifungal activity of vapor against Colletotrichum gloeosporioides in avocados; details: Example 9, vapor of 3 mL in a Petri dish for 72 hours, 7 days of incubation
Method: Example 7. The antifungal activity of AITC and DADS vapor against Colletotrichum gloeosporioides (Cg) was tested in avocados. All test pieces were wounded by removing the stem and infected by dispensing 1000 Cg spores suspended in 10 μL of water into the wound. The test groups consisted of avocados that were: untreated and uninfected; untreated and infected; treated by dipping in a solution of 0.1 g/L of prochloraz; exposed to the vapor of 3 mL of AITC disposed in a Petri dish; and exposed to the vapor of 3 mL of DADS disposed in a Petri dish. FIG. 9 quantifies the infection results. AITC vapor reduced the incidence of Cg mold by 97% compared to the untreated test group and 70% compared to the prochloraz treated test group. DADS vapor reduced the incidence of Cg mold by 60% compared to the untreated test group.
Example 8. The antifungal activity of a range of DADS vapor exposure times was tested against Cg in avocados. All test pieces were wounded by removing the stem and infected by dispensing 1000 Cg spores suspended in 10 μL of water into the wound. The test groups consisted of avocados that were: infected and untreated; and exposed to the vapor of 3 mL of DADS in a Petri dish for 24 hours, 48 hours, and 72 hours. FIG. 10 quantifies the infection results. Test group exposed to DADS vapor at all exposure times reduced the incidence of Cg mold compared to the untreated test group. A 24 hour DADS exposure reduced the incidence of Cg mold by 8%. A 48 hour DADS exposure reduced the incidence of Cg mold by 25%. A 72 hour DADS exposure reduced the incidence of Cg mold by 57%.
Example 9. The antifungal activity of a range of AITC and carvacrol vapor exposure times was tested against Cg in avocados. To measure the effect of the various treatments on ripening, durometer shore was taken after 7 days of incubation at ambient temperature and high humidity. All samples were wounded by removing the stem and infected by dispensing 1000 Cg spores suspended in 10 μL of water in the wound. The test groups consisted of avocados that were: infected and left untreated on the benchtop; infected and left untreated under a fume hood; exposed to the vapor of 3 mL of AITC in a Petri dish for 24 hours, 48 hours, and 72 hours; and exposed to the vapor of 3 mL of carvacrol in a Petri dish for 72 hours. FIG. 11 quantifies the infection results. […] All exposure times to AITC vapor reduced the incidence of Cg mold compared to the untreated samples. A 24 hour AITC exposure reduced the incidence of Cg mold by 90%. A 48 hour AITC exposure reduced the incidence of Cg mold by 97%. A 72 hour AITC exposure reduced the incidence of Cg mold by 83%. […]
Example 21. The antifungal activity of avocados exposed to AITC vapor and prochloraz was tested against Cg in avocados. To measure the effect of the various treatments on ripening, durometer shore was taken after 5 days of incubation at ambient temperature (about 20° C. to about 25° C.) and high humidity (about 88% relative humidity to about 93% relative humidity). All samples were wounded by removing the stem and infected by dispensing 1000 Cg spores suspended in 10 μL of water in the wound. Exposure to vapor was done by placing the avocados in an airtight container, dispensing AITC onto Whatman filter paper discs, suspending the discs in front of a battery-powered fan, closing the container and incubating the avocados for 30 minutes. After vapor exposure, the avocados were left at ambient temperature, high humidity, and assessed for Cg mold on day 5. Treatment groups consisted of avocados that were: exposed for 30 minutes to the vapor of 125 μL of AITC disposed on a filter paper disc; dipped in a solution of 0.1 g/L of prochloraz and placed to dry on a rack in front of a fan for 30 min; infected and left untreated; and uninfected and untreated. […] To prepare the 0.1 g/L of prochloraz, 10 mg of prochloraz was mixed with 10 mL of ethanol and 90 mL of water. […] A 24 hour AITC exposure reduced the incidence of Cg mold by 90%. […]

avocados = assay: Durometer shore (ripening/firmness) of treated avocados; details: Example 21; Cg-infected avocados; after 5 days; AITC 125 μL vapor 30 minutes, prochloraz 0.1 g/L dip
Method: Example 9. The antifungal activity of a range of AITC and carvacrol vapor exposure times was tested against Cg in avocados. To measure the effect of the various treatments on ripening, durometer shore was taken after 7 days of incubation at ambient temperature and high humidity. All samples were wounded by removing the stem and infected by dispensing 1000 Cg spores suspended in 10 μL of water in the wound. The test groups consisted of avocados that were: infected and left untreated on the benchtop; infected and left untreated under a fume hood; exposed to the vapor of 3 mL of AITC in a Petri dish for 24 hours, 48 hours, and 72 hours; and exposed to the vapor of 3 mL of carvacrol in a Petri dish for 72 hours. FIG. 11 quantifies the infection results. […] All exposure times to AITC vapor reduced the incidence of Cg mold compared to the untreated samples. A 24 hour AITC exposure reduced the incidence of Cg mold by 90%. A 48 hour AITC exposure reduced the incidence of Cg mold by 97%. A 72 hour AITC exposure reduced the incidence of Cg mold by 83%.
Example 10. The antifungal activity of a range of AITC vapor exposure times were tested against Cg in avocados. To measure the effect of the various treatments on ripening, durometer shore was taken after 6 days of incubation at ambient temperature and high humidity. All samples were wounded by removing the stem and infected by dispensing 1000 Cg spores suspended in 10 μL of water in each wound. The test groups consisted of avocados that were: infected and left untreated on the benchtop; infected and left untreated in a fume hood; exposed to the vapor of 3 mL of AITC in a Petri dish for 24 hours, 48 hours, and 72 hours. FIG. 13 quantifies the infection results. […] All exposure times to AITC vapor reduced the incidence of Cg mold compared to the untreated samples.
Example 21. The antifungal activity of avocados exposed to AITC vapor and prochloraz was tested against Cg in avocados. To measure the effect of the various treatments on ripening, durometer shore was taken after 5 days of incubation at ambient temperature (about 20° C. to about 25° C.) and high humidity (about 88% relative humidity to about 93% relative humidity). All samples were wounded by removing the stem and infected by dispensing 1000 Cg spores suspended in 10 μL of water in the wound. Exposure to vapor was done by placing the avocados in an airtight container, dispensing AITC onto Whatman filter paper discs, suspending the discs in front of a battery-powered fan, closing the container and incubating the avocados for 30 minutes. After vapor exposure, the avocados were left at ambient temperature, high humidity, and assessed for Cg mold on day 5. Treatment groups consisted of avocados that were: exposed for 30 minutes to the vapor of 125 μL of AITC disposed on a filter paper disc; dipped in a solution of 0.1 g/L of prochloraz and placed to dry on a rack in front of a fan for 30 min; infected and left untreated; and uninfected and untreated. […] To prepare the 0.1 g/L of prochloraz, 10 mg of prochloraz was mixed with 10 mL of ethanol and 90 mL of water. […] A 24 hour AITC exposure reduced the incidence of Cg mold by 90%. […] The mean shore value for the untreated avocados was 28.8 (standard deviation (SD)=10.8). The mean shore value for the infected avocados was 47.3 (SD=11.8). The mean shore value of the positive control, prochloraz treated avocados was 44.3 (SD=14.7). The mean shore value of the AITC treated avocados was 61.1 (SD=10.5).
Durometer Shore Measurement: A Fruit Hardness Tester—HPE III Fff w/Sphere Ø 5.0 mm Test Anvil is used for the measurements. The Operating Procedure is as follows: • 1) At room temperature and 1 atm pressure, switch on the measuring device and press the hull or sleeve against the specimen so that the contact surface of the pressure plate rests on the fruit. […]

[2] = system: Penicillium digitatum (Pd); assay: Antifungal activity of vapor against Penicillium digitatum in wounded, infected mandarins; details: vapor of 62.5 μL AITC and/or 125 μL of all other compounds for 30 minutes, assessed after 6 days

With `Cc1ccc(C(C)C)cc1O` [carvacrol] the “reduction of the incidence of Cg mold” value [1] was “did not reduce the incidence of Cg mold”.
In the case of `CCCN(CCOc1c(Cl)cc(Cl)cc1Cl)C(=O)n1ccnc1` [prochloraz, reference compound], the mean shore value (avocados) is reported as 44.3 (SD=14.7) shore.
With `C=CCc1ccc(O)c(OC)c1` [eugenol] the “performance against Pd compared with untreated samples” value [2] was “performed better than the untreated samples”.
